Results reported in US11332485B2, “Penicillin-binding protein inhibitors” (priority 2017, dated 2022).

Tests used:
E. coli K12 PBP1a = target: T1, E. coli K12 PBP1a (Escherichia coli, UniProt P02918); test: Bocillin FL competition binding assay (SDS-PAGE gel, membrane PBPs); conditions: 15 min. pre-incubation, membrane protein extracts, SDS-PAGE fluorescence scan
T1 construct: 100 μg's of total membrane protein extracts containing PBPs; endogenous in cells; host or cells: Escherichia coli K12 membrane fraction
Description: (§1) To determine the ability of test compounds to bind Penicillin Binding Proteins (PBPs), a competition binding assay using Bocillin FL (fluorescent derivative of penicillin V) was adapted from the classical method used to assess PBP potency of beta-lactams.
(§2) Penicillin binding proteins were isolated from Escherichia coli K12 by growth of Escherichia coli K12 from a single colony in 4 L of Luria-Bertani (LB) broth at 35° C. and 250 rpm to an OD600 nm of 0.5. The cells were harvested by centrifugation at 7,000×g for 10 min. at 4° C. Cells were resuspended and washed in 50 mM potassium phosphate pH 7.5. The cells were re-suspended in sonication buffer [50 mM Tris-HCl pH 7.5, 1 mM MgCl2, 1 mM beta-mercaptoethanol, and 5 μg/mL DNAse I] and sonicated by 4 passes of 30 seconds at 45 W on ice. The sample was clarified by centrifugation at 3,000×g to remove cell debris and unbroken cells and supernatant containing the membrane proteins was retained. The membrane proteins including the PBPs were further purified from soluble constituents by an ultracentrifugation step at 100,000×g for 30 min. at 4° C. The membrane proteins are washed twice with 10 mM sodium phosphate pH 7, resuspended in a volume of 5 mL, quantitated by BCA assay, adjusted to […] and frozen at −80° C. until use.
(§3) The adapted Bocillin FL competition binding assay described herein incorporates a 15 min. pre-incubation of test compound with isolated PBPs to attempt to balance the difference in mechanism of inhibition between beta-lactams (largely irreversible covalent bond to active site Serine) and the boron-containing PBP inhibitor test compounds (reversible covalent bond to active site Serine). Briefly, 50 μL reactions consisted of 100 μg's of total membrane protein extracts containing PBPs incubated with a dilution series of test compound ranging from 0.005 μg/mL to 2,480 μg/mL in 10 mM sodium phosphate pH7 containing 350 mM NaCl. Thirty minute reactions at 35° C. were initiated by addition of […] Bocillin FL, quenched by addition of SDS-PAGE loading buffer containing sodium dodecyl sulfate (SDS) and heated for 15 minutes at 95° C. to denature proteins in preparation for SDS-polyacrylamide gel electrophoresis. The Bocillin FL labeled PBPs are then separated by SDS-PAGE in Novex NuPage 10% Bis-Tris pre-cast gels (Invitrogen). The SDS-PAGE gel, post-electrophoresis, is then washed in water to remove excess SDS for 10 minutes at room temperature and placed on the scanning bed of a GE Healthcare/Amersham Biosciences Storm 860 fluorescence scanner. […] Effective PBP inhibitors are detected by a reduction in Bocillin FL labeling of the particular PBP over the dose range of test compound in a dose-responsive manner. […]

E. coli PBP3 = target: T2, E. coli PBP3 (Escherichia coli, UniProt P0AD68); test: as above; conditions: 15 min. pre-incubation, membrane protein extracts, SDS-PAGE fluorescence scan
T2 construct: 100 μg's of total membrane protein extracts containing PBPs; endogenous in cells; host or cells: Escherichia coli K12 membrane fraction
Description: as §1, §2, §3

[1] = test system: hyper-permeable E. coli 901C; test: Broth microdilution MIC assay; format: cell-based; conditions: Escherichia coli, read-out: E. coli 901C MIC
Summary of the method: (§4)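 Following CLSI procedures, compounds were serially diluted 2-fold and challenged with bacteria at 5×10^5 CFU/mL in Mueller-Hinton broth supplemented with divalent cations. After 16-20 hours at 37° C, the lowest concentration without visible growth was recorded as the MIC.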

S. aureus ATCC 29213 = test: Broth microdilution MIC assay; format: cell-based; conditions: Staphylococcus aureus, ATCC29213; broth microdilution, 16-20 hours at 37° C.; read-out: S. aureus 29213 MIC
Summary of the method: as §4

[2] = test system: E. coli DH5α/pLBII-CTX-M15; test: Broth microdilution MIC assay, engineered strain producing CTX-M15; format: cell-based, Escherichia coli; conditions: Escherichia coli, read-out: E. coli DH5α/pLBII-CTX-M15 Microbiological Activity (MIC)
Summary of the method: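 CLSI broth microdilution in cation-supplemented Mueller-Hinton broth, 2-fold compound dilutions, 5×10^5 CFU/mL inoculum, 16-20 h at 37° C, MIC read visually as lowest concentration without growth. E. coli DH5α carries CTX-M15 on pLBII under Lac promoter, or empty pLBII as control.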

E. coli PBP1b = test: Bocillin FL competition binding assay (SDS-PAGE gel, membrane PBPs); parameters: species or system Escherichia coli; conditions: 15 min. pre-incubation, membrane protein extracts, SDS-PAGE fluorescence scan
Description: as §1
Penicillin binding proteins were isolated from Escherichia coli K12 by growth of Escherichia coli K12 from a single colony in 4 L of Luria-Bertani (LB) broth at 35° C. and 250 rpm to an OD600 nm of 0.5. The cells were harvested by centrifugation at 7,000×g for 10 min. at 4° C. Cells were resuspended and washed in 50 mM potassium phosphate pH 7.5. […] The membrane proteins are washed twice with 10 mM sodium phosphate pH 7, resuspended in a volume of 5 mL, quantitated by BCA assay, adjusted to 10 μg/mL and frozen at −80° C. until use.
The adapted Bocillin FL competition binding assay described herein incorporates a 15 min. pre-incubation of test compound with isolated PBPs to attempt to balance the difference in mechanism of inhibition between beta-lactams (largely irreversible covalent bond to active site Serine) and the boron-containing PBP inhibitor test compounds (reversible covalent bond to active site Serine). […] The SDS-PAGE gel, post-electrophoresis, is then washed in water to remove excess SDS for 10 minutes at room temperature and placed on the scanning bed of a GE Healthcare/Amersham Biosciences Storm 860 fluorescence scanner. […]

T2 sequence (P0AD68 1-577): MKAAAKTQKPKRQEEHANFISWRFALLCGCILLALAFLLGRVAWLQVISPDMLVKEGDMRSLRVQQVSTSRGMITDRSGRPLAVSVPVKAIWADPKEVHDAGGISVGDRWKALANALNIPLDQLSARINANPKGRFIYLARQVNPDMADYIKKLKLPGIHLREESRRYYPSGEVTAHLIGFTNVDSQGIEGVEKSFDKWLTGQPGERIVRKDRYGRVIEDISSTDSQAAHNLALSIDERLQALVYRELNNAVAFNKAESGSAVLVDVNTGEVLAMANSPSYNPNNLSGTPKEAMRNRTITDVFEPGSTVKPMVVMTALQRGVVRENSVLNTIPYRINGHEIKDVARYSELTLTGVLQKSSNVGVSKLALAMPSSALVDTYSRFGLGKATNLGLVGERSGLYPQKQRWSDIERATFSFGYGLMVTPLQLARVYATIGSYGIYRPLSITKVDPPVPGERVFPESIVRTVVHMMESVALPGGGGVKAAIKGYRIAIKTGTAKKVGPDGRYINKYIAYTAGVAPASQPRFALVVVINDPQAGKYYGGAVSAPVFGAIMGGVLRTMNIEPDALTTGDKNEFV
T1 sequence (P02918 whole entry): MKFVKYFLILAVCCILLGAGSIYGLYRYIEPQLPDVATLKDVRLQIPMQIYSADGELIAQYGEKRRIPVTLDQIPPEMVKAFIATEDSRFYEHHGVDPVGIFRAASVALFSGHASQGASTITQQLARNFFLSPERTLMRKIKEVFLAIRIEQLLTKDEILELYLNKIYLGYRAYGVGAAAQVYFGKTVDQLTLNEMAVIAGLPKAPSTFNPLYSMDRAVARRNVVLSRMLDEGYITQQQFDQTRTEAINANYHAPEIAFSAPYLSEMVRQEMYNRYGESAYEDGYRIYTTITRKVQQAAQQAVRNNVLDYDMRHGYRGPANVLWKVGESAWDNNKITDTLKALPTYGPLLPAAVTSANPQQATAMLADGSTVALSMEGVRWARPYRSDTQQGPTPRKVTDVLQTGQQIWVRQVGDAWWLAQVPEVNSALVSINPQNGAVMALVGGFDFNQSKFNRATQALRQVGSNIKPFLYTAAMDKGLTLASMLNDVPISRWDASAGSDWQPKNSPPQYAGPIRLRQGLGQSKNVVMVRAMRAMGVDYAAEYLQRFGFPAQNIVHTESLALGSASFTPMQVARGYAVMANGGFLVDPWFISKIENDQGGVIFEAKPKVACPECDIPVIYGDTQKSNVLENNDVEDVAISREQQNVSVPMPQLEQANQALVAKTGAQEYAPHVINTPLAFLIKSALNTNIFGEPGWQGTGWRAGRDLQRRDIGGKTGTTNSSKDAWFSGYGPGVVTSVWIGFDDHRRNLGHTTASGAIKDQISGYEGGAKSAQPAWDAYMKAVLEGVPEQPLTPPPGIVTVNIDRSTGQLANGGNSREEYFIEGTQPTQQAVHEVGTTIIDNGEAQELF

CCN1CCN(C(=O)NC(C(=O)N[C@H]2Cc3cccc(C(=O)O)c3OB2O)c2csc(N)n2)C(=O)C1=O (stereo partly drawn) [Example 12, (3R)-3-(2-(2-aminothiazol-4-yl)-2-(4-ethyl-2,3-dioxopiperazine-1-carboxamido)acetamido)-2-hydroxy-3,4-dihydro-2H-benzo[e][1,2]oxaborinine-8-carboxylic acid]
E. coliK12 PBP1a Potency (E. coli K12 PBP1a): B (B represents a potency between 64 and 1000 μg/mL inclusive) | E. coli PBP3 Potency (E. coli PBP3): A (A represents a potency of >1000 μg/mL) | MIC [1]: < 64 µg/mL | MIC (S. aureus ATCC 29213): 64 to 128 µg/mL | MIC [2]: 8 to 16 µg/mL | E. coli PBP1b Potency (E. coli PBP1b): C (C represents a potency of <64 μg/mL)
